According to patent US20150010473A1, “DIAGNOSIS AND TREATMENT OF TUMORS” (MORPHOTEK, INC., priority 2006, published 2015):

Key:
glioma cells [1] = conditions: Ullrich and Sontheimer 1997; cited from earlier work
membrane of glioma cells = conditions: Soroceanu et al. 1998; cited from earlier work
[2] = tested on: primitive neuroectodermal tumors; assay: Histochemical staining of biopsy sections with biotinylated chlorotoxin, summary; format: binding, human; conditions: of 53 patients tested
Source text: Most of the samples of human tissue, from both sexes, of different ages and races were obtained through the Cooperative Human Tissue Network, Tissue Procurement at UAB, UAB hospitals and the Human Brain Tissue Bank in London, Canada. Snap frozen tissue and fresh tissue embedded in a freezing gel were sliced at 8 microns and picked up onto positively charged glass slides. The sections were then fixed in 4% paraformaldehyde or milloniqs according to the staining protocol. Paraffin blocks were sectioned and prepared according to standard procedures.
Biopsy sections were blocked for 1 hour in 10% normal goat serum in PBS and treated with a dilution of biotinylated chlorotoxin overnight at 4° C. […]
Finally, a third adjacent section was stained with both hematoxylin, a cell nuclei specific stain, and eosin, a cytoplasmic stain. Therefore, for each tissue analyzed, three adjacent sections were stained. […] In the photomicrographs, adjacent sections are identified as follows: TM-601: biotinylated chlorotoxin detected by a brown reaction product of DAB with the biotin and further counterstained with methyl. green; Control: the control section stained with only methyl green; and, H&E: the hematoxylin and eosin stained section. […]

glioma cells [3] = conditions: Transwell assays; Soroceanu et al.; cited from earlier work

In the case of chlorotoxin, the “effect on glioma cell proliferation” value (glioma cells [1]) is given as “enhances glioma cell proliferation”, the “binding to glioma cells” value (membrane of glioma cells) is given as “selectively binds to the membrane of glioma cells” and the “patients whose tumor material showed chlorotoxin specificity” value [2] is given as 50. The “effect on glioma cell migration” value (glioma cells [3]) was “inhibits the ability of glioma cells to migrate”.
